In the NIST ThermoML archive (doi:10.1016/j.jct.2013.08.007):

How the values were obtained:
[1] = Liquid; for mass density: Vibrating tube method; for viscosity: 101.33 kPa, Moving piston method
[2] = xn = mol fraction of the nth substance listed; conditions: Liquid; for viscosity: Moving piston method; for mass density: Vibrating tube method

CCCCO [butan-1-ol]
mass density [kg/m3], [1]
Conditions	302.9 K	323.1 K
100 kPa	802	785.6
1010 kPa	–	786.6
1020 kPa	802.7	–
2010 kPa	803.4	–
2020 kPa	–	787.5
3010 kPa	804.1	788.3
4000 kPa	804.9	789.2
5010 kPa	805.7	–
5020 kPa	–	790
6000 kPa	806.4	–
6020 kPa	–	790.9
7000 kPa	–	791.7
7020 kPa	807.2	–
8010 kPa	807.9	792.5
9020 kPa	808.7	793.3
10020 kPa	809.4	794.2

[1]
Conditions	viscosity [mPa·s]
303.15 K	2.197
323.3 K	1.347

CCCCO [butan-1-ol] + O=C=O
[2]
Conditions	mass density, 303 K [kg/m3]	mass density, 323.1 K [kg/m3]	viscosity, 303 K [mPa·s]	viscosity, 323.1 K [mPa·s]
920 kPa, x2 = 0.047	–	789.3	–	1.143
1050 kPa, x2 = 0.07	808.1	–	1.744	–
1920 kPa, x2 = 0.098	–	793.3	–	1
2030 kPa, x2 = 0.14	814.3	–	1.428	–
2940 kPa, x2 = 0.151	–	798.4	–	0.828
3220 kPa, x2 = 0.217	822.8	–	1.16	–
3990 kPa, x2 = 0.223	–	802	–	0.722
4100 kPa, x2 = 0.304	828.4	–	0.87	–
4970 kPa, x2 = 0.384	835.3	–	0.661	–
5100 kPa, x2 = 0.288	–	806.7	–	0.599
6250 kPa, x2 = 0.374	–	811	–	0.486

CC [ethane] + CCCCO
[2]
Conditions	mass density, 303 K [kg/m3]	mass density, 323.1 K [kg/m3]	viscosity, 303 K [mPa·s]	viscosity, 323.1 K [mPa·s]
1050 kPa, x1 = 0.097	776.8	–	1.553	–
1140 kPa, x1 = 0.086	–	762.8	–	1.008
2050 kPa, x1 = 0.157	–	744.2	–	0.801
2080 kPa, x1 = 0.214	745.4	–	1.114	–
3070 kPa, x1 = 0.243	–	718.4	–	0.618
3070 kPa, x1 = 0.341	704.9	–	0.668	–
4070 kPa, x1 = 0.336	–	688.3	–	0.462
4950 kPa, x1 = 0.428	–	652.9	–	0.351
6020 kPa, x1 = 0.579	–	588.2	–	0.212

C [methane] + CCCCO
[2]
Conditions	mass density, 303 K [kg/m3]	mass density, 323.1 K [kg/m3]	viscosity, 303 K [mPa·s]	viscosity, 323.1 K [mPa·s]
1050 kPa, x1 = 0.02	–	782.2	–	1.236
1060 kPa, x1 = 0.021	797.6	–	1.994	–
2070 kPa, x1 = 0.035	–	778.5	–	1.174
2100 kPa, x1 = 0.039	793.7	–	1.86	–
2980 kPa, x1 = 0.048	–	775.5	–	1.131
3120 kPa, x1 = 0.056	789.4	–	1.731	–
4030 kPa, x1 = 0.065	–	771.6	–	1.085
4080 kPa, x1 = 0.071	785.8	–	1.67	–
5020 kPa, x1 = 0.079	–	767.9	–	1.046
5090 kPa, x1 = 0.087	781.8	–	1.612	–
6070 kPa, x1 = 0.095	–	764.2	–	1.005
6070 kPa, x1 = 0.102	778.3	–	1.548	–
